Test results from PubChem BioAssay (NCI).
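Interpolation was linear, between the two tested concentrations surrounding the appropriate level; five concentrations were tested over 48 hours in 96-well plates. GI50 marks 50% less growth. TGI is the concentration that stops growth completely.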

What was measured:
Assay in all cases: NCI-60 cell line screen, 48 h
A498 renal = test system: A498 renal
HT29 colon = test system: HT29 colon
RXF 393 renal = test system: RXF 393 renal
U251 CNS = test system: U251 CNS
SN12C renal = test system: SN12C renal
LOX IMVI melanoma = test system: LOX IMVI melanoma
NCI-H23 lung = test system: NCI-H23 lung
KM12 colon = test system: KM12 colon
NCI-H522 lung = test system: NCI-H522 lung
SNB-19 CNS = test system: SNB-19 CNS

Compound	TGI (A498 renal) [µM]	TGI (HT29 colon) [µM]	TGI (RXF 393 renal) [µM]	TGI (U251 CNS) [µM]	TGI (SN12C renal) [µM]	TGI (LOX IMVI melanoma) [µM]	TGI (NCI-H23 lung) [µM]	TGI (KM12 colon) [µM]	TGI (NCI-H522 lung) [µM]	TGI (SNB-19 CNS) [µM]	GI50 (A498 renal) [µM]	GI50 (HT29 colon) [µM]	GI50 (RXF 393 renal) [µM]	GI50 (U251 CNS) [µM]	GI50 (SN12C renal) [µM]	GI50 (LOX IMVI melanoma) [µM]	GI50 (NCI-H23 lung) [µM]	GI50 (KM12 colon) [µM]	GI50 (NCI-H522 lung) [µM]	GI50 (SNB-19 CNS) [µM]
CCCCCCCCC(=O)N(C)C1C2CN3CCC(O2)C13 (stereo unspecified)	> 100	> 100	> 100	> 100	> 100	> 100	> 100	> 100	> 100	> 100										
COc1cc(C(O)c2nc3ccccc3s2)cc(OC)c1OC (stereo unspecified)	> 100	> 100	> 100	> 100	> 100	> 100	> 100	> 100	> 100	> 100	3.18	> 100	> 100	> 100	> 100	50.6	7.32	78.3	29.2	> 100
COC(=O)c1cc(-c2cc(OC)c(OC)c(OC)c2)[nH]c1N/N=C/c1c(Cl)cccc1Cl	2.46	> 82.4	31.4	10.1	> 74.3	17.3	7.78	6.94	18.6	21.4	0.683	3.18	7.45	2.17	3.3	2.67	1.25	0.801	3.39	3.37
O=C1/C(=C/c2ccc([N+](=O)[O-])o2)Oc2ccc(Br)cc21	30.1	5.78	3.21	28.7	4.53	3.55	23.1	13	3.35	30	15.9	2.64	1.68	14.9	1.96	1.82	6.76	3.85	1.88	16.1
O=c1c2cccc3cccc(c4oc5c6cccc7cccc(c(=O)c5c14)c76)c32	> 100	19.6	16.6	17.4	18.2	17.2	20.1	21.2	10.1	18.6										
CN1CCN(c2nc(NCCCCNc3ccnc4cc(Cl)ccc34)c3ccccc3n2)CC1	25	5.49	3.45	10.1	20	4.19	29.7	25.1	9.32	20.8	12.1	2	1.74	3.27	4.73	1.89	11.7	8.25	2.82	4.28
CC1=CCC(OC(=O)C(C)(C)CCC(O)(C(=O)OC2(C(C)C)CCC3(C)OC3C2)C(C)C)(C(C)C)CC1 (stereo unspecified)	0.935	1.75	1.25	1.12	0.532	0.15	0.301	1.6	0.439	5.43	0.0508	0.606	0.587	0.363	0.124	0.0764	0.113	0.793	0.13	1.14
N#C/C(=C1\NN=C(N)C(c2ccc(Cl)cc2)=C1O)c1ccc(Cl)cc1	> 100	> 100	> 100	> 100	> 100	> 100	> 100	> 100	> 100	> 100										
O=C1C=C[C@@]23C[C@@H](Nc4c(O)c5c6c(c42)=NCCC=6C=N5)SC3=C1	25.3	7.39	8.81	7.92	5.16	3.78	7.01	18.5	3.13	30.6	9.04		2.51	2.72	2.36	1.82	2.52			
Fc1cccc2cc3ccc4cccc5ccc(c12)c3c45	> 100	> 100	> 100	> 100	> 100	> 100	> 100	> 100	> 100	> 100										
CCc1cccc2c3c(sc12)C(c1ccc(Cl)cc1)C(C#N)=C(N)O3 (stereo unspecified)	1.52	3.61	0.976	5.26	12.5	4.22	5.18	13.1	4.39	12.1	0.224	0.457	0.258	0.496	0.805	0.545	0.692	0.447	0.338	0.499
COc1ccc(-c2nnc(SCC(=O)Nc3ccc(/C(C)=N\O)cc3)n2-c2ccccc2)cc1OC	46.1	> 100	7.11	19.6	> 100	> 100	> 100	> 100	> 100	> 100	2.72	> 100	2.56	3.61	26.2	> 100	12.9	> 100	21.4	6.43
COC(=O)C1C2C=CC(C2)C1(C(=O)OC)S(=O)CC12CCC(CC1O)C2(C)C (stereo unspecified)	> 100	> 100	> 100	> 100	> 100	40	> 100	> 100	> 100	> 100										
CN(C)CCNC(=O)c1ccc(C(=O)NCCN(C)C)c2nc3ccccc3cc12	3.93	6.15	2.09	7.85	8.96	3.15	3.8	4.14	1.93	11.3										
C/C([O-])=C1\Cc2ccccc2C1=O.C/C([O-])=C1\Cc2ccccc2C1=O.CC[O-].CC[O-].[Ti+4]	31.5	> 100	21.9	26.2	> 81.6	32	62.2	46.1	47.6	38.5	13.4	31.9	7.3	9.36	21.5	13	20.2	17.3	14.2	17.4
O=C(CCCCCCSc1nc(-c2ccccc2)cc(-c2ccccc2)n1)NO	4.05	11.3	4.42	4.08	10.5	3.84	5.55	15.9	7.72	11.3	1.69	2.02	1.72	1.51	2.9	1.86	1.97	3.22	1.07	2.69
O=C1OC(CC(=O)c2ccc(Cl)cc2Cl)C(Cl)=C1Cl (stereo unspecified)	> 100	36	36.3	> 72.8	> 31.6	57.9	> 65.7	> 100	34.7	> 76.6										
CC1=C(C(=O)Nc2cccc(Cl)c2)C(c2ccc([N+](=O)[O-])cc2)C(C(=O)Nc2cccc(Cl)c2)=C(C)N1	> 100	35	58.7	56	75.8	28.8	62.3	52.9	89.9	> 100										
Cc1ccc2c(c1C)-c1c(ccc(C)c1C)C(=O)C2=O	4.35	7.43	2.57	12.8	2.73	3.76	2.81	2.21	0.403	23.8										
CC(CN1CCN(C)CC1)CN1c2ccccc2Sc2ccc(C(F)(F)F)cc21 (stereo unspecified)	15.2	3.27	3.03	3.12	14.5	3.25	4.05	3.52	3.37	4.32	2.98	1.8	1.64	1.68	4.07	1.68	1.83	1.95	1.79	2.08
CCN1CCN(CC(=O)Nc2nc3ccc(NCc4ccc(Cl)cc4)cc3s2)CC1	17	4.61	3.05	4.03	11.9	3.17	> 100	> 100	5.19	10.7	4.09	2.02	1.54	2	2.94	1.68	3.25	3.73	2.2	3.12
C=CCNCCCN1C(=O)c2ccc3c4c(ccc(c24)C1=O)C(=O)N(CCCNCC=C)C3=O	1.76	0.499	1.52	1	1.78	0.97	1.42	1.62	1.34	1.96	0.394	0.157	0.344	0.269	0.399	0.316	0.392	0.417	0.336	0.592
O=C1CC(c2ccc3c(c2)OCO3)Nc2cc3c(cc21)OCO3 (stereo unspecified)	0.862	22.3	4.44	> 100	> 100	15.3	> 100	17.3	16.8	> 100	0.169	0.374	0.343	0.544	0.788	0.467	0.479	0.398	0.551	0.687
C=C1CC2(C[C@@H](c3ccccc3)O[C@@H](c3ccccc3)C2)OC1=O (stereo partly specified)	23.5	8.97	3.55	28.9	9.62	2.84	7.72	15.5	3.02	29.7										
